In patent publication US20260022142A1, “MACROCYCLIC IMMUNOMODULATORS” (Bristol-Myers Squibb Company, priority 2022, published 2026):
pIC50: −log10 of the molar value. Bridge positions count the residues as written; N and C are the ends. Square brackets hold non-standard residues; d marks the D form. Peptide text beside a SMILES is read from it. * marks the point of attachment. ξ: configuration not given here. Phe(3-CF3) = N[C@@H](Cc1cccc(C(F)(F)F)c1)C(=O)O; Phe(4-COOH) = N[C@@H](Cc1ccc(C(=O)O)cc1)C(=O)O; Bip = N[C@@H](Cc1ccc(-c2ccccc2)cc1)C(=O)O; NH(CH2)14COOH = O=C(O)CCCCCCCCCCCCCCN*; Phe(3-Me) = Cc1cccc(C[C@H](N)C(=O)O)c1; NH(CH2)12COOH = O=C(O)CCCCCCCCCCCCN*; Val(3-OH) = CC(C)(O)[C@H](N)C(=O)O; hPhe = N[C@@H](CCc1ccccc1)C(=O)O; 4Pal = N[C@@H](Cc1ccncc1)C(=O)O; Cha = N[C@@H](CC1CCCCC1)C(=O)O; Cit = NC(=O)NCCC[C@H](N)C(=O)O; Thr(3ξ) = CC(O)[C@H](N)C(=O)O; Dap(Me) = CNC[C@H](N)C(=O)O; Carboxymethyl = O=C(O)C*; Orn = NCCC[C@H](N)C(=O)O; Aun = NCCCCCCCCCCC(=O)O; Dab = NCC[C@H](N)C(=O)O; Dap = NC[C@H](N)C(=O)O; AEEA = NCCOCCOCC(=O)O

biological target: T1, PD-1/PD-L1 interaction (PE-labeled human PD-L1-Ig binding to Jurkat cell line over-expressing human PD-1) (Homo sapiens, UniProt Q15116); experiment: Jurkat-PD-1 Cell Binding High-Content Screening Assay (CBA); format: cell-based; settings: Jurkat cell line over-expressing human PD-1; PE-labeled PD-L1-Ig 20 nM final; read-out: Jurkat hPD1-PDL1 IC50
T1 construct: expressed in transfected cells; host or cells: Jurkat
Method in brief: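 Binding of fluorescent PD-L1-Ig (20 nM final) to Jurkat-PD-1 cells was measured by automated imaging after 1 h, following a 2 h compound pre-treatment at 37° C.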

T1 sequence (Q15116 25-288): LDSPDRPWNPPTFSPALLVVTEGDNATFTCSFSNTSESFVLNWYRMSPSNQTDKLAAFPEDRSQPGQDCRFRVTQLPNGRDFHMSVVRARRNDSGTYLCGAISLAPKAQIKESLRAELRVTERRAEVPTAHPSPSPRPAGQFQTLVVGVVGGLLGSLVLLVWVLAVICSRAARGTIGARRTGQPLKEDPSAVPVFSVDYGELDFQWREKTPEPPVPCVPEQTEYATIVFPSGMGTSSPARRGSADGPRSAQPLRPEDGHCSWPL

pIC50 | Structure (SMILES)
7.93 | Cc1cccc(C[C@@H]2NC(=O)[C@H](CC(=O)O)NC(=O)[C@H](Cc3ccc(OCC(=O)O)cc3)NC(=O)[C@H](CN)NC(=O)CSC[C@@H](C(=O)N[C@@H](CC(=O)O)C(=O)NCC(=O)NCCCCCCCCCCC(=O)O)NC(=O)[C@H]([C@@H](C)O)NC(=O)[C@H](C(C)C)NC(=O)[C@H](CC3CCCCC3)NC(=O)[C@H](Cc3cnc[nH]3)NC(=O)[C@@H](CC(C)C)NC(=O)[C@H](CCCN)NC(=O)[C@H](C(C)C)NC(=O)[C@H](Cc3ccc(-c4ccccc4)cc3)NC(=O)[C@H](C(C)C)NC2=O)c1 [Compound 1093] ({CH2CO}-[Dap]Y(Carboxymethyl)D[Phe(3-Me)]V[Bip]V[Orn][dL]H[Cha]VTCDG[Aun]-OH; thioether N-14)
8.11 | Cc1cccc(C[C@@H]2NC(=O)[C@H](CC(=O)O)NC(=O)[C@H](Cc3ccc(OCC(=O)O)cc3)NC(=O)[C@H](CN)NC(=O)CSC[C@@H](C(=O)N[C@@H](CCN)C(=O)NCCOCCOCC(=O)NCCCCCCCCCCC(=O)O)NC(=O)[C@H](CCCN)NC(=O)[C@H](C(C)C)NC(=O)[C@H](CC3CCCCC3)NC(=O)[C@H](CCN)NC(=O)[C@@H](CC(C)C)NC(=O)[C@H](CCCN)NC(=O)[C@H](CCCNC(N)=O)NC(=O)[C@H](Cc3ccc(-c4ccccc4)cc3)NC(=O)[C@H](Cc3ccc(O)cc3)NC2=O)c1 [Compound 2580] ({CH2CO}-[Dap]Y(Carboxymethyl)D[Phe(3-Me)]Y[Bip][Cit][Orn][dL][Dab][Cha]V[Orn]C[Dab][AEEA][Aun]-OH; thioether N-14)
7.72 | Cc1cccc(C[C@@H]2NC(=O)[C@H](CC(=O)O)NC(=O)[C@H](Cc3ccc(OCC(=O)O)cc3)NC(=O)[C@H](CCN)NC(=O)CSC[C@@H](C(=O)N[C@@H](CCN)C(=O)NCCOCCOCC(=O)NCCOCCOCC(=O)NCCCCCCCCCCCCC(=O)O)NC(=O)[C@H](CCC(=O)O)NC(=O)[C@H](C(C)(C)O)NC(=O)[C@H](CC3CCCCC3)NC(=O)[C@H](CCN)NC(=O)[C@@H](CC(C)C)NC(=O)[C@H](CCCN)NC(=O)[C@H](Cc3ccc(OCC(=O)O)cc3)NC(=O)[C@H](Cc3ccc(-c4ccccc4)cc3)NC(=O)[C@H](Cc3ccc(OCC(=O)O)cc3)NC2=O)c1 [Compound 3758] ({CH2CO}-[Dab]Y(Carboxymethyl)D[Phe(3-Me)]Y(Carboxymethyl)[Bip]Y(Carboxymethyl)[Orn][dL][Dab][Cha][Val(3-OH)]EC[Dab][AEEA][AEEA]-{NH(CH2)12COOH}; thioether N-14)
7.74 | Cc1cccc(C[C@@H]2NC(=O)[C@H](CC(=O)O)NC(=O)[C@H](Cc3ccc(OCC(=O)O)cc3)NC(=O)[C@H](CN)NC(=O)CSC[C@@H](C(=O)NCCOCCOCC(=O)NCCCCCCCCCCC(=O)O)NC(=O)[C@H](CN)NC(=O)[C@H](C(C)C)NC(=O)[C@H](CC3CCCCC3)NC(=O)[C@H](CCN)NC(=O)[C@@H](CC(C)C)NC(=O)[C@H](CCCN)NC(=O)[C@H](CCC(=O)O)NC(=O)[C@H](Cc3ccc(-c4ccccc4)cc3)NC(=O)[C@H](C(C)C)NC2=O)c1 [Compound 2666] ({CH2CO}-[Dap]Y(Carboxymethyl)D[Phe(3-Me)]V[Bip]E[Orn][dL][Dab][Cha]V[Dap]C[AEEA][Aun]-OH; thioether N-14)
8.17 | CC(C)C[C@H]1NC(=O)[C@H](CCCN)NC(=O)[C@H](Cc2ccc(OCC(=O)O)cc2)NC(=O)[C@H](Cc2ccc(-c3ccccc3)cc2)NC(=O)[C@H](Cc2ccc(OCC(=O)O)cc2)NC(=O)[C@H](Cc2cccc(C(F)(F)F)c2)NC(=O)[C@H](CC(=O)O)NC(=O)[C@H](Cc2ccc(OCC(=O)O)cc2)NC(=O)[C@H](CCN)NC(=O)CSC[C@@H](C(=O)N[C@@H](CCN)C(=O)NCCCCCCCCCCC(=O)O)NC(=O)[C@H](C(C)O)NC(=O)[C@H](C(C)C)NC(=O)[C@H](CC2CCCCC2)NC(=O)[C@H](CCN)NC1=O (stereo partly drawn) [Compound 3820] ({CH2CO}-[Dab]Y(Carboxymethyl)D[Phe(3-CF3)]Y(Carboxymethyl)[Bip]Y(Carboxymethyl)[Orn][dL][Dab][Cha]V[Thr(3ξ)]C[Dab][Aun]-OH; thioether N-14)
7.55 | CNC[C@H](NC(=O)[C@@H]1CSCC(=O)N[C@@H](CN)C(=O)N[C@@H](Cc2ccc(OCC(=O)O)cc2)C(=O)N[C@@H](CC(=O)O)C(=O)N[C@@H](Cc2cccc(C)c2)C(=O)N[C@@H](C(C)C)C(=O)N[C@@H](Cc2ccc(-c3ccccc3)cc2)C(=O)N[C@@H](CCCNC(N)=O)C(=O)N[C@@H](CCCN)C(=O)N[C@H](CC(C)C)C(=O)N[C@@H](CCN)C(=O)N[C@@H](CC2CCCCC2)C(=O)N[C@@H](C(C)C)C(=O)N[C@@H]([C@@H](C)O)C(=O)N1)C(=O)NCCCCCCCCCCC(=O)O [Compound 2787] ({CH2CO}-[Dap]Y(Carboxymethyl)D[Phe(3-Me)]V[Bip][Cit][Orn][dL][Dab][Cha]VTC[Dap(Me)][Aun]-OH; thioether N-14)
7.82 | Cc1cccc(C[C@@H]2NC(=O)[C@H](CC(=O)O)NC(=O)[C@H](Cc3ccc(OCC(=O)O)cc3)NC(=O)[C@H](CCc3ccccc3)NC(=O)CSC[C@@H](C(=O)N[C@@H](CCN)C(=O)NCCCCCCCCCCC(=O)O)NC(=O)[C@H](CO)NC(=O)[C@H](C(C)(C)O)NC(=O)[C@H](CC3CCCCC3)NC(=O)[C@H](CCN)NC(=O)[C@@H](CC(C)C)NC(=O)[C@H](CCCN)NC(=O)[C@H](Cc3ccc(OCC(=O)O)cc3)NC(=O)[C@H](Cc3ccc(-c4ccccc4)cc3)NC(=O)[C@H](Cc3ccc(OCC(=O)O)cc3)NC2=O)c1 [Compound 2231] ({CH2CO}-[hPhe]Y(Carboxymethyl)D[Phe(3-Me)]Y(Carboxymethyl)[Bip]Y(Carboxymethyl)[Orn][dL][Dab][Cha][Val(3-OH)]SC[Dab][Aun]-OH; thioether N-14)
6.47 | CC(C)C[C@H]1NC(=O)[C@H](Cc2cnc[nH]2)NC(=O)[C@H](Cc2ccc(C(=O)O)cc2)NC(=O)[C@H](Cc2ccc(-c3ccccc3)cc2)NC(=O)[C@H](Cc2ccc(C(=O)O)cc2)NC(=O)[C@H](Cc2cccc(C(F)(F)F)c2)NC(=O)[C@H](CC(=O)O)NC(=O)[C@H](Cc2ccc(OCC(=O)O)cc2)NC(=O)[C@H](Cc2ccc(OCC(=O)O)cc2)NC(=O)CSC[C@@H](C(=O)N[C@@H](CCN)C(=O)NCCOCCOCC(=O)NCCOCCOCC(=O)NCCCCCCCCCCCCCCC(=O)O)NC(=O)[C@H](CO)NC(=O)[C@H](C(C)(C)O)NC(=O)[C@H](CC2CCCCC2)NC(=O)[C@H](CCN)NC1=O [Compound 3840] ({CH2CO}-Y(Carboxymethyl)Y(Carboxymethyl)D[Phe(3-CF3)][Phe(4-COOH)][Bip][Phe(4-COOH)]H[dL][Dab][Cha][Val(3-OH)]SC[Dab][AEEA][AEEA]-{NH(CH2)14COOH}; thioether N-14)
7.53 | CC(C)C[C@H]1NC(=O)[C@H](CCCN)NC(=O)[C@H](C(C)C)NC(=O)[C@H](Cc2ccc(-c3ccccc3)cc2)NC(=O)[C@H](C(C)C)NC(=O)[C@H](Cc2ccc(O)cc2)NC(=O)[C@H](CC(=O)O)NC(=O)[C@H](Cc2ccc(OCC(=O)O)cc2)NC(=O)[C@H](CN)NC(=O)CSC[C@@H](C(=O)N[C@@H](CCN)C(=O)NCCCCCCCCCCC(=O)O)NC(=O)[C@H](CCCCN)NC(=O)[C@H](C(C)C)NC(=O)[C@H](CC2CCCCC2)NC(=O)[C@H](CCN)NC1=O [Compound 2033] ({CH2CO}-[Dap]Y(Carboxymethyl)DYV[Bip]V[Orn][dL][Dab][Cha]VKC[Dab][Aun]-OH; thioether N-14)
6.98 | Cc1cccc(C[C@@H]2NC(=O)[C@H](CC(=O)O)NC(=O)[C@H](Cc3ccncc3)NC(=O)[C@H](Cc3ccc(OCC(=O)O)cc3)NC(=O)CSC[C@@H](C(=O)N[C@@H](CCCN)C(=O)NCCCCCCCCCCC(=O)O)NC(=O)[C@H]([C@@H](C)O)NC(=O)[C@H](C(C)C)NC(=O)[C@H](CC3CCCCC3)NC(=O)[C@H](CCN)NC(=O)[C@@H](CC(C)C)NC(=O)[C@H](CCCN)NC(=O)[C@H](C(C)C)NC(=O)[C@H](Cc3ccc(-c4ccccc4)cc3)NC(=O)[C@H](C(C)C)NC2=O)c1 [Compound 1165] ({CH2CO}-Y(Carboxymethyl)[4Pal]D[Phe(3-Me)]V[Bip]V[Orn][dL][Dab][Cha]VTC[Orn][Aun]-OH; thioether N-14)
8.00 | Cc1cccc(C[C@@H]2NC(=O)[C@H](CC(=O)O)NC(=O)[C@H](Cc3ccc(OCC(=O)O)cc3)NC(=O)[C@H](CN)NC(=O)CSC[C@@H](C(=O)N[C@@H](CCN)C(=O)NCCOCCOCC(=O)NCCCCCCCCCCC(=O)O)NC(=O)[C@H](CCCNC(=N)N)NC(=O)[C@H](C(C)C)NC(=O)[C@H](CC3CCCCC3)NC(=O)[C@H](CCN)NC(=O)[C@@H](CC(C)C)NC(=O)[C@H](CCCN)NC(=O)[C@H](C(C)C)NC(=O)[C@H](Cc3ccc(-c4ccccc4)cc3)NC(=O)[C@H](C(C)C)NC2=O)c1 [Compound 2552] ({CH2CO}-[Dap]Y(Carboxymethyl)D[Phe(3-Me)]V[Bip]V[Orn][dL][Dab][Cha]VRC[Dab][AEEA][Aun]-OH; thioether N-14)
8.05 | Cc1cccc(C[C@@H]2NC(=O)[C@H](CC(=O)O)NC(=O)[C@H](Cc3ccc(OCC(=O)O)cc3)NC(=O)[C@H](CCCNC(=N)N)NC(=O)CSC[C@@H](C(=O)N[C@@H](CCN)C(=O)NCCCCCCCCCCC(=O)O)NC(=O)[C@H](CCC(=O)O)NC(=O)[C@H](C(C)C)NC(=O)[C@H](CC3CCCCC3)NC(=O)[C@H](CCN)NC(=O)[C@@H](CC(C)C)NC(=O)[C@H](CCCN)NC(=O)[C@H](Cc3ccc(O)cc3)NC(=O)[C@H](Cc3ccc(-c4ccccc4)cc3)NC(=O)[C@H](Cc3ccc(O)cc3)NC2=O)c1 [Compound 3381] ({CH2CO}-RY(Carboxymethyl)D[Phe(3-Me)]Y[Bip]Y[Orn][dL][Dab][Cha]VEC[Dab][Aun]-OH; thioether N-14)
8.04 | CC(C)C[C@H]1NC(=O)[C@H](CCCN)NC(=O)[C@H](C(C)C)NC(=O)[C@H](Cc2ccc(-c3ccccc3)cc2)NC(=O)[C@H](C(C)C)NC(=O)[C@H](Cc2c[nH]c3ccccc23)NC(=O)[C@H](CC(=O)O)NC(=O)[C@H](Cc2ccc(OCC(=O)O)cc2)NC(=O)[C@H](CCCNC(=N)N)NC(=O)CSC[C@@H](C(=O)N[C@@H](CCCN)C(=O)NCCCCCCCCCCC(=O)O)NC(=O)[C@H](CCC(=O)O)NC(=O)[C@H](C(C)C)NC(=O)[C@H](CC2CCCCC2)NC(=O)[C@H](CCN)NC1=O [Compound 3345] ({CH2CO}-RY(Carboxymethyl)DWV[Bip]V[Orn][dL][Dab][Cha]VEC[Orn][Aun]-OH; thioether N-14)
